From patent US5147866A, “1,2-diamino-cyclobuten-3,4-dione derivatives” (Beecham Group p.l.c., priority 1989, dated 1992)

Columns and labels:
[1] = Antihypertensive activity: systolic blood pressure, tail cuff method, spontaneously hypertensive rats; assay type: in vivo; conditions: spontaneously hypertensive rats (systolic blood pressure >180 mmHg)
Method: Systolic blood pressures were recorded by a modification of the tail cuff method described by I. M. Claxton, M. G. Palfreyman, R. H. Poyser, R. L. Whiting, European Journal of Pharmacology, 37, 179 (1976). A W+W BP recorder, model 8005 was used to display pulses. Prior to all measurements rats were placed in a heated environment (33.5°±0.5° C.) before transfer to a restraining cage. Each determination of blood pressure was the mean of at least 5 readings. Spontaneously hypertensive rats (ages 12-18 weeks) with systolic blood pressures >180 mmHg were considered hypertensive.

[2] = system: guinea-pig isolated trachealis; experiment: Bronchodilator activity: inhibition of spontaneous tone in guinea-pig isolated trachealis; conditions: Cavia porcellus; tracheal spirals, Krebs solution 37° C.; relaxation as percentage of total relaxation with 10^-3 M isoprenaline
Method: Male guinea pigs (300-600 g) were stunned by a blow to the head and bled from the carotid artery. The trachea was exposed, dissected free of connective tissue, and transferred to oxygenated Krebs solution at 37° C. Next, spirals (2 per trachea) were prepared by cutting the whole trachea spirally along its longitudinal axis and then dividing this spiral lengthwise. Each preparation was mounted, using silk thread, in a 10 ml organ bath filled with Krebs solution at 37° C. and bubbled with 5% CO2 with O2. The resting tension of the preparations was set at 2 g and changes in muscle tension were monitored isometrically by means of a UFI (2 oz) force and displacement transducer (Ormed Ltd) connected to a Linseis pen recorder. All preparations were allowed to equilibrate for 60 minutes. During this equilibration period the preparations were washed by upward displacement at 15 minute intervals and, if necessary, the resting tension was readjusted to 2 g using a mechanical micromanipulator system.
Once a steady resting tension had been obtained, the preparations were dosed […] with the test compound (10^-8 -2×10^-5 M), and finally a maximum relaxation achieved by addition of 10^-3 M isoprenaline. The fall in tension evoked by the test compound was expressed as a percentage of the total relaxation evoked in the presence of […]. Appropriate concentration-relaxation curves were then constructed and values for potency (IC50) were obtained.
[The composition of Krebs solution is: sodium chloride 118.07 mM, sodium hydrogen carbonate 26.19 mM, potassium chloride 4.68 mM, potassium orthophosphate 1.18 mM, magnesium sulphate septahydrate 1.8 mM and calcium chloride 2.52 mM;pH ca. 7.45.]

SMILES: CNc1c(N[C@@H]2c3cc(C#N)ccc3OC(C)(C)[C@H]2O)c(=O)c1=O (relative stereo) [Example 2]
- lowers blood pressure by ([1]; 3 mg/kg p.o.): 17%
- IC50 [2]: 4 µM

SMILES: CCc1ccc2c(c1)[C@@H](N(C)c1c(N)c(=O)c1=O)[C@H](O)C(C)(C)O2 [Example 12, trans-(3S,4R)-N^1-[4-(6-Ethyl-3,4-dihydro-2,2-dimethyl-2H-1-benzopyran-3-ol)]-2-amino-1-methylaminocyclobutene-3,4-dione]
- lowers blood pressure by ([1]; 0.05 mg/Kg p.o.): 24%

SMILES: CC1(C)Oc2ccc(C#N)cc2[C@@H](Nc2c(N)c(=O)c2=O)[C@@H]1O (relative stereo) [Example 1]
- lowers blood pressure by ([1]; 3 mg/kg p.o.): 50%
- IC50 [2]: 3.7 µM

SMILES: CN(c1c(N)c(=O)c1=O)[C@@H]1c2cc(C#N)ccc2OC(C)(C)[C@H]1O (relative stereo) [Example 3, trans-N'-[4-(6-Cyano-3,4-dihydro-2,2-dimethyl-2H-1-benzopyran-3-ol)]-2-amino-1-methylaminocyclobutene-3,4-dione]
- lowers blood pressure by ([1]; 3 mg/kg p.o.): 58%
- IC50 [2]: 3.1 µM
